Reference: paper PMC2841507 (Journal of medicinal chemistry, 2010)

What was measured:
[1] = molecular target: human α4β2-nAChR (Homo sapiens, UniProt P17787+P43681); test: 86Rb+ efflux assay, SH-EP1-hα4β2 cells; type: cell-based
[2] = molecular target: human α3β4*-nAChR (Homo sapiens, UniProt P30926+P32297); test: 86Rb+ efflux assay, SH-SY5Y cells; type: cell-based
[3] = molecular target: human DAT (Homo sapiens, UniProt Q01959); test: cell-based; type: cell-based
[4] = molecular target: human NET (Homo sapiens, UniProt P23975); test: cell-based; type: cell-based
[5] = molecular target: human α4β4-nAChR (Homo sapiens, UniProt P30926+P43681); test: 86Rb+ efflux assay, SH-EP1-hα4β4 cells; type: cell-based
[6] = molecular target: human muscle-type α1β1γδ- (α1*-) nAChR (Homo sapiens, UniProt P02708+P07510+P11230+Q07001); test: 86Rb+ efflux assay, TE671/RD cells; type: cell-based
[7] = tested on: nicotine-induced antinociception (tail-flick); test: Blockade of nicotine-induced antinociception, tail-flick test; type: in vivo, mice; settings: ratio of AD50 values, relative to 2a

Row | Structure (SMILES) | IC50 [1] [µM] | IC50 [2] [µM] | IC50 [3] [µM] | IC50 [4] [µM] | times more potent than 2a in blocking nicotine-induced antinociception in the tail-flick test [7] | further results
1 | CC(C(=O)c1cccc(F)c1)N1CCCC1 (stereo not drawn) [Compound 2aa, 2-(N-Pyrrolidinyl)-3’-fluoropropiophenone] | 71 | 35 | 0.156 ± 0.046 | 0.135 ± 0.036 |  | fold more potent than 2a in inhibition of DA uptake [3]: 4 fold; fold more potent than 2a in inhibition of NE uptake [4]: 14 fold
2 | CC(C(=O)c1cccc(Br)c1)N1CCCC1 (stereo not drawn) [Compound 2bb, 2-(N-Pyrrolidinyl)-3’-bromopropiophenone] | 74 | 11 | 0.75 ± 0.173 | 1.18 ± 0.27 |  | IC50 [5]: 64 µM; IC50 [6]: 19 µM
3 | CC(NC(C)(C)C)C(=O)c1cccc(Br)c1 (stereo not drawn) [Compound 2c] |  |  |  |  | ~ 10 fold | 
4 | Cc1cccc(C(=O)C(C)N2CCCC2)c1 (stereo not drawn) [Compound 2cc, 2-(N-Pyrrolidinyl)-3’-methylpropiophenone] | 56 | 11 | 0.414 ± 0.089 | 0.577 ± 0.061 |  | IC50 [6]: 53 µM
5 | Cc1cccc(C(=O)C(C)NC(C)(C)C)c1 (stereo not drawn) [Compound 2d] |  |  |  |  | 24 fold | 
6 | COc1cccc(C(=O)C(C)N2CCCC2)c1 (stereo not drawn) [Compound 2dd, 2-(N-Pyrrolidinyl)-3’-methoxypropiophenone] | 57 | 16 | 0.452 ± 0.082 | 0.718 ± 0.13 |  | IC50 [6]: 87 µM
7 | CC(C(=O)c1cccc([N+](=O)[O-])c1)N1CCCC1 (stereo not drawn) [Compound 2ee, 2-(N-Pyrrolidinyl)-3’-nitropropiophenone] |  | 53 | 10 ± 1.9 | 4.1 ± 0.54 |  | 
8 | CC(C(=O)c1cccc(Cl)c1)N1CCCCC1 (stereo not drawn) [Compound 2ff] |  |  |  |  | 24 fold | 
9 | CC(NC(C)(C)C)C(=O)c1ccc(Br)cc1 (stereo not drawn) [Compound 2h] |  |  |  |  | ~ 10 fold | 
10 | Cc1ccc(C(=O)C(C)NC(C)(C)C)cc1 (stereo not drawn) [Compound 2i] |  |  |  |  | ~ 10 fold | 
11 | CC(NC(C)(C)C)C(=O)c1ccc(F)c(F)c1 (stereo not drawn) [Compound 2j] |  |  |  |  | 24 fold | 
12 | CC(NC(C)(C)C)C(=O)c1cc(Cl)cc(Cl)c1 (stereo not drawn) [Compound 2n] |  |  |  |  | 43 fold | 
13 | CCC(NC(C)(C)C)C(=O)c1ccc(Cl)c(Cl)c1 (stereo not drawn) [Compound 2w] |  |  |  |  | 24 fold | 
